Measurements as given in patent publication EP0487030A2, “Process of optical resolution for the preparation of an optically active cyclic amine” (SHIONOGI SEIYAKU KABUSHIKI KAISHA trading under the name of …, priority 1990, dated 1992).
Converted amounts (≈) assume the structure as drawn. Like-named read-outs stand apart in the source and are kept apart here.

What was measured:
Assay in all cases: Minimum growth inhibitory concentration, method of the Japan Society of Chemotherapy
Assay type in all cases: cell-based
Escherichia coli EC-7437 = conditions: EC7437; bacteria F: Escherichia coli EC-7437; bacteria ×10⁶/ml
Text: (§1) The results are shown in Table 1. • (A) : Staphylococcus aureus SR3131 • (B) : Staphylococcus aureus SR3637 • (C) : Staphylococcus aureus SR57690FLX-R* • (D) : Streptococcus pneumoniae • (E) : Streptococcus faecalis SR58180FLX-R* • (F) : Escherichia coli EC-7437 • (G) : Escherichia coli SR5038 OFLX-R* * : ofloxacin resistant bacteria

[1] = system: Escherichia coli SR5038 OFLX-R; conditions: SR5038OFLXR, read-out: Minimum Inhibitory Concentration
Text: as §1

[2] = system: Staphylococcus aureus SR3637; conditions: bacteria B: Staphylococcus aureus SR3637; bacteria ×10⁶/ml
Text: as §1

[3] = system: Staphylococcus aureus SR57690FLX-R; conditions: SR57690FLXR, read-out: Minimum Inhibitory Concentration
Text: as §1

[4] = system: Staphylococcus aureus SR3131; conditions: bacteria A: Staphylococcus aureus SR3131; bacteria ×10⁶/ml
Text: as §1

[5] = system: Streptococcus faecalis SR58180FLX-R; conditions: Enterococcus faecalis, SR58180FLXR, read-out: Minimum Inhibitory Concentration
Text: as §1

Streptococcus pneumoniae = conditions: bacteria D: Streptococcus pneumoniae; bacteria ×10⁶/ml
Text: as §1

Row | SMILES | MIC (Escherichia coli EC-7437) | MIC ([1]; Escherichia coli) | MIC [2] | MIC [3] | MIC [4] | MIC [5] | MIC (Streptococcus pneumoniae) | MIC ([1]; bacteria G: Escherichia coli SR5038 OFLX-R, ofloxacin resistant, bacteria ×10⁶/ml)
1 | C=C1CN(c2c(F)cc3c(=O)c(C(=O)O)cn(C4CC4)c3c2F)CC1NC (racemic) [Racemate of the compound 1] | 0.006 µg/mL (≈ 0.016 µM) | 12.5 µg/mL (≈ 33.3 µM) | 0.1 µg/mL (≈ 0.266 µM) | 6.3 µg/mL (≈ 16.8 µM) | 0.1 µg/mL (≈ 0.266 µM) | 12.5 µg/mL (≈ 33.3 µM) | 0.4 µg/mL (≈ 1.07 µM) | –
2 | C=C1CN(c2c(F)cc3c(=O)c(C(=O)O)cn(C4CC4)c3c2F)C[C@H]1NC [Compound 1, 7-((-)-(S)-3-Methylamino-4-methylenepyrrolidine)-1-cyclopropyl-6,8-difluoro-1,4-dihydro-4-oxo-3-quinolinecarboxylic acid] | < 0.003 µg/mL | 12.5 µg/mL (≈ 33.3 µM) | 0.05 µg/mL (≈ 0.133 µM) | 6.3 µg/mL (≈ 16.8 µM) | 0.05 µg/mL (≈ 0.133 µM) | 6.3 µg/mL (≈ 16.8 µM) | 0.2 µg/mL (≈ 0.533 µM) | –
3 | CC1COc2c(N3CCN(C)CC3)c(F)cc3c(=O)c(C(=O)O)cn1c23 (stereo not drawn) [Ofloxacin] | < 0.02 µg/mL | – | 0.4 µg/mL (≈ 1.11 µM) | 50 µg/mL (≈ 138 µM) | 0.4 µg/mL (≈ 1.11 µM) | 100 µg/mL (≈ 277 µM) | 1.6 µg/mL (≈ 4.43 µM) | 50 µg/mL (≈ 138 µM)
